Experiment [1] is described as follows: Effective concentration required to inhibit SIV induced syncytium in CEM174 cells. Format: functional, cell-based.
Experiment [2] in a line: Binding constant to TAR at 0.393e-4 M concentration.
Experiment [3] can be described thus: Percent inhibition of SIV-induced syncytium in CEM174 cells. Format: functional.
The nature of experiment [4]: Binding constant to TAR at 1.107e-4 M concentration.
Experiment [5] is described as follows: Binding constant to TAR at 0.814e-4 M concentration.
Experiment [6] can be described thus: Binding constant to TAR at 0.357e-4 M concentration.

`N=C(N)NCCCNC(=O)c1cc2ccccc2cn1.O=S(O)O` yielded an EC50 in experiment [1] of 3.92 µM. Besides, in experiment [2], the K came out at 169000. The Inhibition in experiment [3] stood at 60.7%.

The molecule `NCCCNC(=O)c1cc2ccccc2cn1` showed an EC50 in experiment [1] of 8.74 µM. Moreover, in experiment [3], the Inhibition is on record as 58.7%. Also, in experiment [4], the K stood at 15400.

`NCCNC(=O)c1cc2ccccc2cn1` yielded an EC50 in experiment [1] of 12.9 µM. Besides, the K in experiment [5] came to 33000. The Inhibition in experiment [3] is recorded as 44.2%.

As for `N=C(N)NCCNC(=O)c1cc2ccccc2cn1.O=S(O)O`, in experiment [1], the EC50 came to 6.86 µM. The molecule further showed an Inhibition in experiment [3] of 56.2%. Further, the K in experiment [6] was found to be 207000.
